Target: T1, hERG potassium channel (Homo sapiens, UniProt Q12809)
T1 construct: host or cells: CHO
Assay: Manual patch-clamp of hERG potassium currents in CHO cells stably expressing hERG channel
Type: cell-based
Conditions: read-out: IC50(μM), blocking effect on the hERG potassium ion channel
Protocol: This example is intended to test the blocking effect of the compounds of the present disclosure on hERG potassium currents in a stable cell strain transfected with an hERG potassium channel by a manual patch-clamp assay.
The cells used in this experiment were from a CHO cell line (provided by Sophion Bioscience, Denmark) transfected with hERG cDNA and stably expressing hERG channel at cell passage number of P5. Cells were cultured in a medium containing the following components (all from Invitrogen): Ham's F12 medium, 10% (v/v) inactivated fetal bovine serum, […] hygromycin B, and […] geneticin. CHO hERG cells were grown in a culture dish containing the above culture medium and cultured in an incubator at 37° C. with 5% CO2. […]
In this experiment, a manual patch-clamp system (HEKA EPC-10 signal amplifier and digital conversion system, purchased from HEKA Electronics, Germany) was used for whole cell current recording. […] After the hERG potassium currents recorded in the above step were stable under the continuous extracellular fluid perfusion in the recording chamber, the drug to be tested could be added for perfusion until the inhibition effect of the drug on the hERG current reached a stable state. […]
The blocking effect of the compound of the present disclosure on hERG potassium currents was determined by the above test.

T1 sequence (Q12809 whole entry): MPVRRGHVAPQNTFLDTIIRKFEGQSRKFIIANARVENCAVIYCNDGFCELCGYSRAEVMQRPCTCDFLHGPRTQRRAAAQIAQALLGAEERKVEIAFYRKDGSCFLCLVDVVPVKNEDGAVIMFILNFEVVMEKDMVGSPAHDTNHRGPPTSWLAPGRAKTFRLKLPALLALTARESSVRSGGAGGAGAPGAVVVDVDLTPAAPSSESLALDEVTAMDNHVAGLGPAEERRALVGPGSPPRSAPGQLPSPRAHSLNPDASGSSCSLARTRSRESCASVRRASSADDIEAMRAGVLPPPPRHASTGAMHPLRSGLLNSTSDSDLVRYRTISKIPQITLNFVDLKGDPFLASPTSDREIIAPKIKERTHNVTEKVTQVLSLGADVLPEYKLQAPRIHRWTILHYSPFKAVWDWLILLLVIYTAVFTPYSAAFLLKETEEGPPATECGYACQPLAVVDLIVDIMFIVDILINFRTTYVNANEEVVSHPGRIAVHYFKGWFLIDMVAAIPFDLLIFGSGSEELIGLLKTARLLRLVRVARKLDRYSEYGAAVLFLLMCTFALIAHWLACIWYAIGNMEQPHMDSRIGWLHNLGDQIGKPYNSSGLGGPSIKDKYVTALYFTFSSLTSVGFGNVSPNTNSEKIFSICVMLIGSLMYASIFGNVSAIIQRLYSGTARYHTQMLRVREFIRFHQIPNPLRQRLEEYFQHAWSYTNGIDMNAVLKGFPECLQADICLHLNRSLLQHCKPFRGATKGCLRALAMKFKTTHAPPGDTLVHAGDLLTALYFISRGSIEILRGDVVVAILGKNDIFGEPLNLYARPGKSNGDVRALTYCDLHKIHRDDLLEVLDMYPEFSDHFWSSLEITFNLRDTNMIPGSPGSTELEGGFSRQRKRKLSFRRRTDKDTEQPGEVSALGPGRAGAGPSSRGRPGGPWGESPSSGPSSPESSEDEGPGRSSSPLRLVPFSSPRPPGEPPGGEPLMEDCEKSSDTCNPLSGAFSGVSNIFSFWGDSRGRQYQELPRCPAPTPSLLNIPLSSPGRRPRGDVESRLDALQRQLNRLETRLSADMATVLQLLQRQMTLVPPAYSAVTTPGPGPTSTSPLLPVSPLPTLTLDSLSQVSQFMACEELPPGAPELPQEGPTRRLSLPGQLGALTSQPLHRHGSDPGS

SMILES: Cc1nc(N[C@H](C)c2cccc(C(F)F)c2F)c2cc([C@]3(O)CC[C@@H](O)CC3)c(=O)[nH]c2n1 [Example 18-p1, 4-(((R)-1-(3-(difluoromethyl)-2-fluorophenyl)ethyl)amino)-6-((1s,4S)-1,4-dihydroxycyclohexyl)-2-methylpyrido[2,3-d]pyrimidin-7(8H)-one]
- IC50: > 30 µM
